Measurements published in PMC6175828, “C16-ceramide is a natural regulatory ligand of p53 in cellular stress response” (Nature Communications, 2018).
One block for each compound: values may come before it.

How the values were obtained:
p53 [1] = biological target: T1, p53 (Homo sapiens, UniProt P04637); assay: UV photo-crosslinking, MALDI-TOF MS and LC-MS/MS site mapping; thermal shift (Tm […] to […] °C); format: binding; set-up: gene TP53; DBD, residues 100–300
p53 [2] = biological target: T2, p53 (Homo sapiens, UniProt P04637, S241A); assay: binding test of p53 mutant (Supplementary Figure […]), qualitative
T2 construct: gene TP53; full-length

p53 [3] = biological target: T3, p53 (Homo sapiens, UniProt P04637, S240E); assay: as above
T3 construct: gene TP53; full-length

p53 [4] = biological target: T4, p53 (Homo sapiens, UniProt P04637, R175H); assay: binding test of p53 mutant (Supplementary Figure 4a), qualitative
T4 construct: gene TP53

p53 [5] = biological target: T1, p53; assay: intrinsic tyrosine fluorescence quenching titration of purified p53 DBD; PVDF membrane-binding assay; set-up: gene TP53
p53 [6] = biological target: T1, p53; assay: PVDF membrane-binding assay with purified p53; p53 immunoprecipitation with LC-MS/MS of bound ceramide; set-up: gene TP53; purified recombinant p53; endogenous p53 pulled down from A549 cells

SMILES: C#CCCCC1(CCCCCCCCC(=O)N[C@@H](CO)[C@H](O)/C=C/CCCCCCCCCCCCC)N=N1 [PAC, N-(9-(3-pent-4-ynyl-3-H-diazirin-3-yl)-nonanoyl)-D-erythro-sphingosine]
UV photo-crosslinking, MALDI-TOF MS and LC-MS/MS site mapping; thermal shift (Tm) (p53 [1]): LC-MS/MS data revealed two ceramide-modified residues, Ser240 and Ser241 (Fig. 3b), in the PAC-modified sample only

Kd (p53 [5]): ~0.06 µM
SMILES: CCCCCCCCCCCCC/C=C/[C@@H](O)[C@H](CO)NC(=O)CCCCCCCCCCCCCCC[n+]1ccccc1 [PC16, D-erythro-2-N-[16′-(1′′-pyridinium)-hexadecanoyl]-sphingosine bromide]
binding test of p53 mutant (Supplementary Figure 4), qualitative (p53 [2]): substitutions with aa having shorter side chains (S241A or S240E) did not affect the binding
binding test of p53 mutant (Supplementary Figure 4), qualitative (p53 [3]): substitutions with aa having shorter side chains (S241A or S240E) did not affect the binding
binding test of p53 mutant (Supplementary Figure 4a), qualitative (p53 [4]): R175H, did not affect the binding of PC16 to p53 (Supplementary Figure 4a)

SMILES: CCCCCCCCCCCCC/C=C/[C@@H](O)[C@H](CO)NC(=O)CCCCCCCCCCCCCCC [C16-ceramide, N-(hexadecanoyl)-sphing-4-enine]
PVDF membrane-binding assay with purified p53; p53 immunoprecipitation with LC-M (p53 [6]): these experiments demonstrated the strong preference of p53 for C16-ceramide
